Data reported in paper PMC7151106 (Pharmaceutics, 2020).
Like-named read-outs stand apart in the source and are kept apart here.

Assays:
[1] = logP (partition coefficient of n-octanol/water)
[2] = Pharmacokinetic study and kidney distribution after single oral administration in ICR mice
Protocol: (§1) An aliquot (30 µL) of each plasma sample was stored at −80 °C until the analysis. […] An aliquot (50 µL) of each kidney homogenate sample was stored at −80 °C until the analysis.
(§2) For the analysis of SGLT2 inhibitors, aliquots of plasma (30 µL) and kidney homogenate (50 µL) were added to 100 μL of aqueous solution of D4-DWP16001 (IS, 20 ng/mL), and vigorously mixed with 500 μL methyl tert-butyl ether (MTBE) for 15 min. After centrifugation at 16,000 g for 5 min, samples were kept for 1 h at −80 °C to make an aqueous layer freeze. An organic upper layer was transferred to a clean tube and evaporated to dryness under a gentle stream of nitrogen. Then, the dried extract was reconstituted in 150 µL of mobile phase, and a 3 µL aliquot of the reconstituent was injected into a liquid chromatography–tandem mass spectrometry (LC–MS/MS) system.
(§3) Pharmacokinetic parameters, such as the area under plasma concentration-time curve from zero to infinity (AUC), were calculated from plasma concentration vs time curves using non-compartment analysis with WinNonlin (version 5.1; Pharsights, Cary, NC, USA). The AUC ratios (i.e., ratios of kidney AUC to plasma AUC) were calculated by dividing the AUC of the three SGLT2 inhibitors in the kidney by the plasma AUC values of the three SGLT2 inhibitors.

SGLT2 = molecular target: T1, SGLT2 (Homo sapiens, UniProt P31639); conditions: read-out: IC50 values of previous reports; cited from earlier work
T1 construct: host or cells: CHO
T1 sequence (P31639 1-672): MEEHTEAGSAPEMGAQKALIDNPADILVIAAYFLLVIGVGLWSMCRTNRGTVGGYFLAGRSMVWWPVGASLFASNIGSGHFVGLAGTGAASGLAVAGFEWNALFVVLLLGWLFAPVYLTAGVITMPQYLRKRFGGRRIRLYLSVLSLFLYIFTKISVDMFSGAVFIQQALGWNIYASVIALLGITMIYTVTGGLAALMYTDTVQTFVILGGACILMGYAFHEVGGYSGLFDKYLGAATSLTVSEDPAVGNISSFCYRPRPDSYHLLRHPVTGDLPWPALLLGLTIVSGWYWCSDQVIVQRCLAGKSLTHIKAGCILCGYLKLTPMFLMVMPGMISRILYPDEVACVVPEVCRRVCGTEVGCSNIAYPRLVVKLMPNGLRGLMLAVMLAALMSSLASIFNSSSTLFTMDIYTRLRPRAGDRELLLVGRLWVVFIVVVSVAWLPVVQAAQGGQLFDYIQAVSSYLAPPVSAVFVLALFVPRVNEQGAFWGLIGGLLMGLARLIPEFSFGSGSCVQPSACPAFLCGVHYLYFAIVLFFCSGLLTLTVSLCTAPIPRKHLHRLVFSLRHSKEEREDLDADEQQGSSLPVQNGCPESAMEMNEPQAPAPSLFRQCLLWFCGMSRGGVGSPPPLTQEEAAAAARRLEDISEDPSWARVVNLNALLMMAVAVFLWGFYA

[3] = set-up: method as in PMID 27430987; conditions: cited from earlier work
[4] = mouse, in vivo, po, 1 mg/kg
Protocol: as §1, §2, §3

[5] = ICR, mouse, plasma, po, 1 mg/kg

## OC[C@H]1O[C@@H](c2cc(Cc3ccc(C4CC4)cc3)c(Cl)c3c2CCO3)[C@H](O)[C@@H](O)[C@@H]1O [DWP16001]
[1]
  logP: 2.65
[2]; ICR, mouse, kidney homogenate and plasma, po, 1 mg/kg
  Kp: 85 ± 16.1
[2]; ICR, mouse, kidney, po, 1 mg/kg, t1/2, kidney, single oral 1 mg/kg, ICR mice, mean ± SD, five mice
  half-life: 126 ± 80.4 h
[2]; [5]
  AUC(0-inf): 1730 ± 340 ng·h/mL
  AUC(0-t): 1690 ± 340 ng·h/mL
  Cmax: 371 ± 109 ng/mL
  Tmax: 0.7 ± 0.3 h
[2]; ICR, mouse, plasma, po, 1 mg/kg, t1/2, plasma, single oral 1 mg/kg, ICR mice, mean ± SD, five mice
  half-life: 3.8 ± 1.4 h
[2]; kidney, single oral 1 mg/kg, ICR mice, mean ± SD, five mice
  AUC72h: 139.2 ± 5.19 μg∙h/g tissue

## OC[C@H]1O[C@@H](c2ccc(F)c(Cc3cc4ccccc4s3)c2)[C@H](O)[C@@H](O)[C@@H]1O [Ipragliflozin, ipragliflozin]
SGLT2
  IC50: 6.75 to 8.07 nM
[3]
  Duration of increased urinary glucose excretion post dose: ≥ 18 h
[4]
  AUC72h: 73.65 ± 7.05 μg∙h/g tissue
